{"source": "patent US12161722B2", "about": "“Bifunctional heterocyclic compound having BTK degradation function via ubiquitin proteasome pathway, and use thereof” (KOREA RESEARCH INSTITUTE OF CHEMICAL TECHNOLOGY, priority 2021, dated 2024)"}
{"molecular_target": "T1, WT BTK protein (Homo sapiens, UniProt Q06187)", "T1 construct": "measured for intracellular BTK protein levels by Western blotting; endogenous in cells; host or cells: TMD-8 or RAMOS cells", "T1 sequence (Q06187 whole entry)": "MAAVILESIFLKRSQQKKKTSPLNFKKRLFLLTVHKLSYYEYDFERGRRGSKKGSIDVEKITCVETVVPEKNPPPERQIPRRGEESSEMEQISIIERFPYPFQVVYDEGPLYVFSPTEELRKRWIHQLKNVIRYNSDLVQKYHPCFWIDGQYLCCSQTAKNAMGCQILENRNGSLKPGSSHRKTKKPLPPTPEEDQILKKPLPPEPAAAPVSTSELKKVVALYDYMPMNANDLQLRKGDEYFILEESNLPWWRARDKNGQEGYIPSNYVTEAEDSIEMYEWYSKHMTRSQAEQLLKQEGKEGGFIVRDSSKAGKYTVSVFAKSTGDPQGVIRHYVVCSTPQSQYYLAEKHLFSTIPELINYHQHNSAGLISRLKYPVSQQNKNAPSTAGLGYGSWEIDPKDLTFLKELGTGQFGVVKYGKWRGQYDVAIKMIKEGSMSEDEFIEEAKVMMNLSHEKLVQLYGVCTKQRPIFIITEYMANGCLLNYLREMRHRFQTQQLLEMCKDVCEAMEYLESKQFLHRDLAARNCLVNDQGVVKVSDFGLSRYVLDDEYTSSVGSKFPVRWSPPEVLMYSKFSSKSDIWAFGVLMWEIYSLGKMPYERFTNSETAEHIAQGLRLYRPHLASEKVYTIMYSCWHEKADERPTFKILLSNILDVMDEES", "experiment": "BTK protein degradation assay (Western blotting), WT BTK", "type": "cell-based", "conditions": "concentration range accounting for 50% degradation of WT BTK protein, TMD-8 or RAMOS cells, 24 hours", "method_in_brief": "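BTK levels were read by Western blotting (GAPDH and β-actin normalisers) in RIPA lysates of TMD-8 cells exposed to compounds for 24 h at 1×10^6 cells/mL. Results scored in ranges of the concentration producing 50% loss of WT BTK.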", "units": {"DC50": "nM"}}
{"smiles": "Cc1cccc(C)c1Nc1nn(C)c2nc(Nc3ccc4c(c3)CN(CCC3(O)CCN(c5ccc6c(c5)C(=O)N(C5CCC(=O)NC5=O)C6=O)CC3)CC4)ncc12", "note": "(centres unmarked) [Compound 131, 5-(4-(2-(7-((3-((2,6-Dimethylphenyl)amino)-1-methyl-1H-pyrazolo[3,4-d]pyrimidin-6-yl)amino)-3,4-dihydroisoquinolin-2 (1H)-yl)ethyl)-4-hydroxypiperidin-1-yl)-2-(2,6-dioxopiperidin-3-yl)isoindoline-1,3-dione]", "DC50": "0.1 to 10"}
{"smiles": "Cc1cccc(C)c1Nc1nn(C)c2nc(Nc3ccc4c(c3)CN(CC3CCN(C5=CC(=O)N(C6CCC(=O)NC6=O)C5=O)CC3)CC4)ncc12", "note": "(centres unmarked) [Compound 201, 3-(3-(4-((7-((3-((2,6-dimethylphenyl)amino)-1-methyl-1H-pyrazolo[3,4-d]pyrimidin-6-yl)amino)-3,4-dihydroisoquinolin-2 (1H)-yl)methyl)piperidin-1-yl)-2,5-dioxo-2,5-dihydro-1H-pyrrol-1-yl)piperidin-2,6-one]", "DC50": "0.1 to 10"}
{"smiles": "Cc1cccc(C)c1Nc1nn(C)c2nc(Nc3ccc4c(c3)CN(C3CCN(C[C@@H]5CCN(c6ccc7c(c6)C(=O)N(C6CCC(=O)NC6=O)C7=O)C5)CC3)CC4)ncc12", "note": "(stereo partly drawn) [Compound 143, 5-((S)-3-((4-(7-((3-((2,6-dimethylphenyl)amino)-1-methyl-1H-pyrazolo[3,4-d]pyrimidin-6-yl)amino)-3,4-dihydroisoquinolin-2 (1H)-yl)piperidin-1-yl)methyl)pyrrolidin-1-yl)-2-(2,6-dioxopiperidin-3-yl)isoindoline-1,3-dione]", "DC50": "0.1 to 10"}
{"smiles": "Cc1cccc(C)c1Nc1nn(C)c2nc(Nc3ccc4c(c3)CN(C(=O)CNCc3ccc5c(c3)CN(C3CCC(=O)NC3=O)C5=O)CC4)ncc12", "note": "(centres unmarked) [Compound 98, 3-(5-(((2-(7-((3-((2,6-Dimethylphenyl)amino)-1-methyl-1H-pyrazolo[3,4-d]pyrimidin-6-yl)amino)-3,4-dihydroisoquinolin-2 (1H)-yl)-2-oxoethyl)amino)methyl)-1-oxoisoindolin-2-yl)piperidin-2,6-one]", "DC50": "0.1 to 10"}
{"smiles": "Cc1cccc(C)c1Nc1nn(C)c2nc(Nc3ccc4c(c3)CN(CC(=O)N3CCN(c5ccc6c(c5)C(=O)N(C5CCC(=O)NC5=O)C6=O)CC3)CC4)ncc12", "note": "(centres unmarked) [Compound 95, 5-(4-(2-(7-((3-((2,6-dimethylphenyl)amino)-1-methyl-1H-pyrazolo[3,4-d]pyrimidin-6-yl)amino)-3,4-dihydroisoquinolin-2 (1H)-yl)acetyl)piperazin-1-yl)-2-(2,6-dioxopiperidin-3-yl)isoindoline-1,3-dione]", "DC50": "10 to 1000"}
{"smiles": "Cc1cccc(C)c1Nc1nn(C)c2nc(Nc3ccc(N4CCN(CC5CN(c6ccc7c(c6)C(=O)N(C6CCC(=O)NC6=O)C7=O)C5)C[C@H]4C)cc3)ncc12", "note": "(stereo partly drawn) [Compound 184, 5-(3-(((R)-4-(4-((3-((2,6-Dimethylphenyl)amino)-1-methyl-1H-pyrazolo[3,4-d]pyrimidin-6-yl)amino)phenyl)-3-methylpiperazin-1-yl)methyl)azetidin-1-yl)-2-(2,6-dioxopiperidin-3-yl)isoindoline-1,3-dione]", "DC50": "0.1 to 10"}
{"smiles": "Cc1cccc(C)c1Nc1nn(C)c2nc(Nc3ccc4c(c3)CN(CC3CCN(c5ccc6c(n5)CN(C5CCC(=O)NC5=O)C6=O)CC3)CC4)ncc12", "note": "(centres unmarked) [Compound 132, 3-(2-(4-((7-((3-((2,6-dimethylphenyl)amino)-1-methyl-1H-pyrazolo[3,4-d]pyrimidin-6-yl)amino)-3,4-dihydroisoquinolin-2 (1H)-yl)methyl)piperidin-1-yl)-5-oxo-5,7-dihydro-6H-pyrrolo[3,4-b]pyridin-6-yl)piperidin-2,6-one]", "DC50": "0.1 to 10"}
{"smiles": "Cc1cccc(C)c1Nc1nn(C)c2nc(Nc3ccc(C4CCN(CC5CCN(c6ccc7c(c6)C(=O)N(C6CCC(=O)NC6=O)C7=O)CC5)CC4)cc3)ncc12", "note": "(centres unmarked) [Compound 165, 5-(4-((4-(4-((3-((2,6-Dimethylphenyl)amino)-1-methyl-1H-pyrazolo[3,4-d]pyrimidin-6-yl)amino)phenyl)piperidin-1-yl)methyl)piperidin-1-yl)-2-(2,6-dioxopiperidin-3-yl)isoindoline-1,3-dione]", "DC50": "0.1 to 10"}
